ChEMBL document CHEMBL1629513, “Synthesis, characterization, antiamoebic activity and cytotoxicity of novel 2-(quinolin-8-yloxy) acetohydrazones and their cyclized products (1,2,3-thiadiazole and 1,2,3-selenadiazole derivatives)” (Eur J Med Chem, 2010)

Experiments:
Entamoeba histolytica = assay: Antiamoebic activity against Entamoeba histolytica HM-1:IMSS after 72 hrs by microdilution assay; type: functional, organism-based
MCF7 = assay: Cytotoxicity against human MCF7 cells after 48 hrs by MTT assay; type: cell-based; conditions: MCF7, 48 h
[1] = Cytotoxicity against human MCF7 cells assessed as cell viability up to 100 uM after 48 hrs by MTT assay; type: cell-based; conditions: read-out: Activity
[2] = Cytotoxicity against human MCF7 cells assessed as cell viability at 1.56 to 50 uM after 48 hrs by MTT assay; type: cell-based; conditions: read-out: Activity

Row | SMILES | IC50 (Entamoeba histolytica) [µM] | IC50 (MCF7) [µM] | viability at 48 h [1] [%] | viability at 48 h, up to 50 µM [2] [%]
1 | C/C(=N\NC(=O)COc1cccc2cccnc12)c1ccccc1 | 0.03 | > 100 | 100 | –
2 | C/C(=N\NC(=O)COc1cccc2cccnc12)c1ccc(Br)cc1 | 0.04 | > 100 | 100 | –
3 | C/C(=N\NC(=O)COc1cccc2cccnc12)c1ccc(Cl)cc1 | 0.04 | > 100 | 100 | –
4 | C/C(=N\NC(=O)COc1cccc2cccnc12)c1ccccn1 | 0.05 | > 100 | 100 | –
5 | C/C(=N\NC(=O)COc1cccc2cccnc12)c1ccco1 | 0.05 | > 100 | 100 | –
6 | C/C(=N\NC(=O)COc1cccc2cccnc12)c1cccs1 | 0.08 | > 100 | 88 | –
7 | Brc1ccc(-c2csnn2)cc1 | 0.24 | 68.1 | 68 | –
8 | Clc1ccc(-c2csnn2)cc1 | 0.39 | > 100 | – | –
9 | c1ccc(-c2csnn2)nc1 | 5.46 | – | – | –
10 | c1coc(-c2csnn2)c1 | 0.23 | 95.1 | – | –
11 | c1csc(-c2csnn2)c1 | 2.25 | 66.9 | – | –
12 | c1ccc(-c2c[se]nn2)cc1 | 4.56 | – | – | –
13 | Brc1ccc(-c2c[se]nn2)cc1 | 2.95 | – | – | –
14 | Clc1ccc(-c2c[se]nn2)cc1 | 0.58 | 57.1 | 57 | 66
15 | c1ccc(-c2c[se]nn2)nc1 | 0.46 | 86.6 | – | –
16 | c1coc(-c2c[se]nn2)c1 | 5.72 | – | – | –
17 | c1csc(-c2c[se]nn2)c1 | 5.28 | – | – | –
18 | c1ccc(-c2csnn2)cc1 | 7.46 | – | – | –
19 | Cc1ncc([N+](=O)[O-])n1CCO [METRONIDAZOLE] | – | > 100 | 100 | –
